Measurements taken from patent US20180327367A1, “MACROCYCLIC BROAD SPECTRUM ANTIBIOTICS” (priority 2015, published 2018).
Values after ≈ are worked out from the molar mass of the structure shown. Where two headings read alike, the source gives them in different places.

Legend:
[1] = system: Escherichia coli ATCC 25922; assay: Minimum inhibitory concentration, broth micro-dilution (CLSI), E. coli; format: cell-based; settings: Escherichia coli, ATCC25922, 22 h, 35° C., 22 hours
[2] = system: Methicillin Resistant Staphylococcus aureus strain USA 300, NRS384; assay: Minimum inhibitory concentration, broth micro-dilution (CLSI), S. aureus; format: cell-based; settings: Staphylococcus aureus, MRSA / NRS 384 / USA300, 22 h, 35° C., 22 hours
Summary of the method: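 Ten-point 2-fold series began at 4 μg/mL in protocol 2 and 0.5 μg/mL in protocol 3, in cation-adjusted MHB plus 0.002% Tween-80. Bacteria added to OD600 0.0005 final and incubated at 35° C for 22 hours per CLSI microdilution.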

[3] = system: Escherichia coli MC4100 harboring the IMP4213 (E. coli IMP); assay: microbe, parasite or virus in culture; format: cell-based; settings: Escherichia coli, 22 h, read-out: MIC (μg/mL) E. coli IMP, E. coli MC4100 IMP4213, increased outer-membrane permeability; 35° C., 22 hours
Summary of the method: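 Colonies grown 20 hours at 35° C were suspended in cation-adjusted Mueller Hinton Broth with 0.002% Tween-80. Cells were then added to 2-fold compound dilutions starting at 4 or 0.5 μg/mL, at OD600 0.0005.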

[4] = target: T1, SpsB (Staphylococcus aureus signal peptidase) (Staphylococcus aureus, UniProt P0A070); assay: cell-based; format: biochemical; settings: fluorogenic peptide substrate, kinetic read 30 min
T1 construct: This assay uses a suspension of Staphylococcus aureus cells as a source of SpsB instead of recombinant SpsB protein; endogenous in cells; host or cells: S. aureus, USA300 background, overexpressing SpsB (whole-cell suspension from frozen pellets)
T1 sequence (P0A070 whole entry): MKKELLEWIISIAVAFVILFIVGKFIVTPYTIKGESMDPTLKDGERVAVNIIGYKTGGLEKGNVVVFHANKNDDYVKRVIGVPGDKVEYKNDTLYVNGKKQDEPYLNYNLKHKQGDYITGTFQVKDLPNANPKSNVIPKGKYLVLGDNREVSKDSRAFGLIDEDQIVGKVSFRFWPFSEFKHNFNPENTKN
Protocol: A kinetic fluorogenic enzyme activity assay was used to assess inhibition of SpsB (Staphylococcus aureus signal peptidase) activity and IC50s were determined. This assay uses a suspension of Staphylococcus aureus cells as a source of SpsB instead of recombinant SpsB protein.
Cell preparation: Luria broth (LB) was inoculated with S. aureus (USA300 background, overexpressing SpsB) and shaken at 37° C. until an OD600 nm of 1.5-2.0 was reached (˜4 hr). The culture was then diluted to an OD600 nm of 1.0 with LB, aliquoted and centrifuged at 10,000×g for 2 mins. The supernatant was removed and the pellet was resuspended in phosphate buffer (1×PBS, 12.5 mg/L MgCl2, 25 mg/L CaCl2, 0.1% Tween-80) to an OD600 nm of 0.5, then centrifuged again at 10,000x g for 2 mins. The supernatant was removed and the pellets were frozen at −20° C.
Test compounds were prepared in DMSO at a concentration of 10 mg/mL. These compound stocks were diluted into DMSO to a concentration of 25 μg/mL and serial 3-fold dilutions were made in DMSO, for a total of 11 compound concentrations. 20 nL of each compound solution was pre-spotted into a white 384-well plate (50 μL/well polypropylene, Nunc) using acoustic fluid transfer (Echo).
Frozen S. aureus pellets were resuspended in assay buffer (1x PBS, 12.5 mg/L MgCl2, 25 mg/L CaCl2, 0.1% Tween-80) to an OD600 nm of 0.05, then mixed 1:1 (v/v) with 20 μM substrate ((Dabcyl)βAla-KPAKAAE(Edans)) in assay buffer, and this solution was added (20 μL/well) to the 384-well plate that had been pre-spotted with compound. Fluorescence intensity was then immediately read kinetically for 30 minutes with 2 minute read intervals to monitor cleavage of the internally quenched peptide substrate (excitation wavelength=340 nm, emission wavelength=490 nm, Molecular Devices Spectramax M5). Reaction rate (slope) was plotted against inhibitor concentration to derive the IC50.

[5] = read-out: MIC (μg/mL) E. coli, E. coli ATCC 25922
[6] = read-out: MIC (μg/mL) S. aureus, MRSA USA 300 NRS384
[7] = SpsB IC50, whole-cell S. aureus (USA300 background, overexpressing SpsB) as SpsB source
[8] = E. coli ATCC 25922, read-out: MIC (μg/mL) E. coli
[9] = MRSA USA 300 NRS384, read-out: MIC (μg/mL) S. aureus

Row | Compound | MIC [1, 5] | MIC [2, 6] | MIC [3] | IC50 [4, 7] | MIC [1, 8] | MIC [2, 9] | IC50 ([4]; read-out: SpsB IC50, whole-cell S. aureus (USA300 background, overexpressing SpsB) as SpsB source)
1 | C[C@@H]1NC(=O)[C@@H](N(C)C(=O)[C@H](CCCCN)NC(=O)c2ccc(-c3ccc(C(C)(C)C)cc3)cc2)c2ccc(OCCN)c(c2)-c2cc(ccc2OCCN)C[C@@H](C(=O)NCC#N)NC1=O [Compound 108] | 0.5 µg/mL (≈ 0.554 µM) | 0.063 µg/mL (≈ 0.0698 µM) | 0.047 µg/mL (≈ 0.0521 µM) | 1.2 nM | – | – | –
2 | COc1ccc(-c2ccc(C(=O)N[C@@H](CCCCN)C(=O)N(C)[C@@H]3C(=O)N[C@@H](C)C(=O)N[C@H](C(=O)NCC#N)Cc4ccc(OCCN)c(c4)-c4cc3ccc4OCCN)cc2)cc1OC [Compound 109] | – | – | 1 µg/mL (≈ 1.1 µM) | 7.5 nM | > 64 µg/mL | 2 µg/mL (≈ 2.21 µM) | –
3 | C[C@@H]1NC(=O)[C@@H](N(C)C(=O)[C@H](CCCCN)NC(=O)c2ccc(/C=C/c3ccccc3)cc2)c2ccc(OCCN)c(c2)-c2cc(ccc2OCCN)C[C@@H](C(=O)NCC#N)NC1=O [Compound 110] | 8 µg/mL (≈ 9.17 µM) | 0.19 µg/mL (≈ 0.218 µM) | 0.063 µg/mL (≈ 0.0722 µM) | 0.96 nM | – | – | –
4 | C[C@@H]1NC(=O)[C@@H](N(C)C(=O)[C@H](CCCCN)NC(=O)c2ccc(-c3cc(Cl)cc(Cl)c3)cc2)c2ccc(OCCN)c(c2)-c2cc(ccc2OCCN)C[C@@H](C(=O)NCC#N)NC1=O [Compound 111] | 8 µg/mL (≈ 8.74 µM) | 0.13 µg/mL (≈ 0.142 µM) | 0.13 µg/mL (≈ 0.142 µM) | 1 nM | – | – | –
5 | C[C@@H]1NC(=O)[C@@H](N(C)C(=O)[C@H](CCCCN)NC(=O)c2ccc(-c3ccc(C(F)(F)F)cc3)cc2)c2ccc(OCCN)c(c2)-c2cc(ccc2OCCN)C[C@@H](C(=O)NCC#N)NC1=O [Compound 112] | 8 µg/mL (≈ 8.75 µM) | 0.13 µg/mL (≈ 0.142 µM) | 0.13 µg/mL (≈ 0.142 µM) | 0.77 nM | – | – | –
6 | C[C@@H]1NC(=O)[C@@H](N(C)C(=O)[C@H](CCCCN)NC(=O)c2cccc(-c3ccc(Cl)cc3)c2)c2ccc(OCCN)c(c2)-c2cc(ccc2OCCN)C[C@@H](C(=O)NCC#N)NC1=O [Compound 113] | 32 µg/mL (≈ 36.3 µM) | 0.19 µg/mL (≈ 0.216 µM) | 0.13 µg/mL (≈ 0.148 µM) | 0.51 nM | – | – | –
7 | C[C@@H]1NC(=O)[C@@H](N(C)C(=O)[C@H](CCCCN)NC(=O)c2ccccc2-c2ccc(Cl)cc2)c2ccc(OCCN)c(c2)-c2cc(ccc2OCCN)C[C@@H](C(=O)NCC#N)NC1=O [Compound 114] | > 64 µg/mL | 2 µg/mL (≈ 2.27 µM) | 2 µg/mL (≈ 2.27 µM) | 6.1 nM | – | – | –
8 | C[C@@H]1NC(=O)[C@@H](N(C)C(=O)[C@H](CCCCN)NC(=O)c2ccc(Oc3ccc(Cl)cc3)cc2)c2ccc(OCCN)c(c2)-c2cc(ccc2OCCN)C[C@@H](C(=O)NCC#N)NC1=O [Compound 116] | 12 µg/mL (≈ 13.4 µM) | 0.13 µg/mL (≈ 0.145 µM) | 0.063 µg/mL (≈ 0.0703 µM) | 1.3 nM | – | – | –
9 | C[C@@H]1NC(=O)[C@@H](N(C)C(=O)[C@H](CCCCN)NC(=O)Cc2ccc(-c3ccc(Cl)cc3)cc2)c2ccc(OCCN)c(c2)-c2cc(ccc2OCCN)C[C@@H](C(=O)NCC#N)NC1=O [Compound 117] | > 64 µg/mL | 0.13 µg/mL (≈ 0.145 µM) | 0.5 µg/mL (≈ 0.559 µM) | 2 nM | – | – | –
10 | C[C@@H]1NC(=O)[C@@H](N(C)C(=O)[C@H](CCCCN)NC(=O)c2ccc(-c3ccc(-c4ccccc4)cc3)cc2)c2ccc(OCCN)c(c2)-c2cc(ccc2OCCN)C[C@@H](C(=O)NCC#N)NC1=O [Compound 118] | 0.75 µg/mL (≈ 0.813 µM) | 0.063 µg/mL (≈ 0.0683 µM) | 0.031 µg/mL (≈ 0.0336 µM) | 1.4 nM | – | – | –
11 | C[C@@H]1NC(=O)[C@@H](N(C)C(=O)[C@H](CCN)NC(=O)c2ccc(C#Cc3ccccc3)cc2)c2ccc(OCCN)c(c2)-c2cc(ccc2OCCN)C[C@@H](C(=O)NCC#N)NC1=O [Compound 120] | 0.44 µg/mL (≈ 0.523 µM) | 0.094 µg/mL (≈ 0.112 µM) | 0.016 µg/mL (≈ 0.019 µM) | 1 nM | – | – | –
12 | C[C@@H]1NC(=O)[C@@H](N(C)C(=O)[C@H](CCN)NC(=O)c2ccc(CCc3ccccc3)cc2)c2ccc(OCCN)c(c2)-c2cc(ccc2OCCN)C[C@@H](C(=O)NCC#N)NC1=O [Compound 121] | 2 µg/mL (≈ 2.36 µM) | 0.13 µg/mL (≈ 0.154 µM) | 0.023 µg/mL (≈ 0.0272 µM) | 1.2 nM | – | – | –
13 | C[C@@H]1NC(=O)[C@@H](N(C)C(=O)[C@H](CCN)NC(=O)c2ccc(-c3ccc(-c4ccccc4)cc3)cc2)c2ccc(OCCN)c(c2)-c2cc(ccc2OCCN)C[C@@H](C(=O)NCC#N)NC1=O [Compound 122] | 0.25 µg/mL (≈ 0.28 µM) | 0.063 µg/mL (≈ 0.0705 µM) | 0.031 µg/mL (≈ 0.0347 µM) | 1.6 nM | – | – | –
14 | CCCCC1CCC(C(=O)N[C@@H](CCN)C(=O)N(C)[C@@H]2C(=O)N[C@@H](C)C(=O)N[C@H](C(=O)NCC#N)Cc3ccc(OCCN)c(c3)-c3cc2ccc3OCCN)CC1 (stereo partly drawn) [Compound 123] | – | – | 0.0078 µg/mL (≈ 0.0097 µM) | – | 0.5 µg/mL (≈ 0.622 µM) | 0.19 µg/mL (≈ 0.236 µM) | 1.2 nM
15 | CCCCc1ccc(C#CC(=O)N[C@@H](CCN)C(=O)N(C)[C@@H]2C(=O)N[C@@H](C)C(=O)N[C@H](C(=O)NCC#N)Cc3ccc(OCCN)c(c3)-c3cc2ccc3OCCN)cc1 [Compound 124] | – | – | 0.031 µg/mL (≈ 0.0377 µM) | 1.6 nM | 2 µg/mL (≈ 2.43 µM) | 0.13 µg/mL (≈ 0.158 µM) | –
16 | CCCCc1ccc(C(=O)N[C@@H](CCCN)C(=O)N(C)[C@@H]2C(=O)N[C@@H](C)C(=O)N[C@H](C(=O)NCC#N)Cc3ccc(OCCN)c(c3)-c3cc2ccc3OCCN)cc1 [Compound 127] | – | – | 0.063 µg/mL (≈ 0.0776 µM) | 5.9 nM | 4 µg/mL (≈ 4.93 µM) | 0.5 µg/mL (≈ 0.616 µM) | –
17 | CCCCCCCCCCNCCC(=O)N[C@@H](CCN)C(=O)N(C)[C@@H]1C(=O)N[C@@H](C)C(=O)N[C@H](C(=O)NCC#N)Cc2ccc(OCCN)c(c2)-c2cc1ccc2OCCN [Compound 129] | – | – | 0.094 µg/mL (≈ 0.111 µM) | 0.67 nM | 4 µg/mL (≈ 4.71 µM) | 0.023 µg/mL (≈ 0.0271 µM) | –
18 | CCCCCCCCCCNCCC(=O)N(C)[C@@H]1C(=O)N[C@@H](C)C(=O)N[C@H](C(=O)NCC#N)Cc2ccc(OCCN)c(c2)-c2cc1ccc2OCCN [Compound 131] | – | – | 1.8 µg/mL (≈ 2.4 µM) | 0.74 nM | 64 µg/mL (≈ 85.5 µM) | 0.047 µg/mL (≈ 0.0628 µM) | –
19 | CCCCCCCCCCNCC(=O)N(C)[C@@H]1C(=O)N[C@@H](C)C(=O)N[C@H](C(=O)NCC#N)Cc2ccc(OCCN)c(c2)-c2cc1ccc2OCCN [Compound 132] | > 64 µg/mL | 0.25 µg/mL (≈ 0.34 µM) | 3 µg/mL (≈ 4.08 µM) | 0.71 nM | – | – | –
20 | CCCCCCCCCNCCCC(=O)N(C)[C@@H]1C(=O)N[C@@H](C)C(=O)N[C@H](C(=O)NCC#N)Cc2ccc(OCCN)c(c2)-c2cc1ccc2OCCN [Compound 133] | – | – | > 4 µg/mL | 1.1 nM | > 64 µg/mL | 0.25 µg/mL (≈ 0.334 µM) | –
21 | CCCCCCCCNCCCCC(=O)N(C)[C@@H]1C(=O)N[C@@H](C)C(=O)N[C@H](C(=O)NCC#N)Cc2ccc(OCCN)c(c2)-c2cc1ccc2OCCN [Compound 134] | – | – | > 4 µg/mL | 3.5 nM | > 64 µg/mL | 1.5 µg/mL (≈ 2 µM) | –
